Results: patent US11185100B2 (priority 2014, dated 2021)
Where a name gives a salt, the structure may show the parent alone. Read-outs that look alike come from different tables or passages of the source.

Biological target: cat T1R1/T1R3 receptor (Felis catus, UniProt E3UMS2)
Assay: cell-based
Assay type: cell-based
Text: Methods: HEK293 cells that stably express T1R3 and inducibly express T1R1 were exposed to nucleotide derivatives alone or in combination with one or more amino acids and/or one or more nucleotides to activate the umami receptor. Activation of the T1R1/T1R3 receptor was detected by a change in intracellular calcium levels using a calcium sensitive fluorescent dye and/or a luminescent reporter system. Cells that express T1R3 but not T1R1 were used as a control. A FLIPR® Tetra or a FlexStation® 3 was used for data capture.

[1] = in the presence of 20 mM alanine
[2] = in the presence of 20 mM alanine, relative to response with IMP
[3] = threshold amount that activates the receptor, in the presence of 20 mM alanine
[4] = in the presence of 20 mM alanine, read-out: EC50- with Ala

Compound | Threshold [mM] | Activity | Max resp. (ΔF/F) | Max. resp. % of IMP (hek293 cells) | Activity (+Alanine (20 mM)) | EC50 (read-out: EC50- with Ala) [µM] | EC50 [µM] | Max resp. (ΔF/F) [1] | Max. resp. % of IMP [2] | Threshold [3] [mM] | EC50 [4] [µM]
Nc1nc2c(ncn2[C@@H]2O[C@H](COP(=O)(O)O)[C@@H](O)[C@H]2O)c(=S)[nH]1 [6-thioguanosine-5′-O-monophosphate] | 0.0002 | – | – | – | – | – | – | – | – | – | –
Nc1nc2c(nc(Br)n2[C@@H]2O[C@H](COP(=O)(O)O)[C@@H](O)[C@H]2O)c(=O)[nH]1 [8-Bromoguanosine-5′-O-monophosphate] | 1 | active | 0.375 ΔF/F | 30.2 % of IMP | – | – | – | – | – | – | –
Nc1ncnc2c1nc(Cl)n2[C@@H]1O[C@H](COP(=O)(O)O)C(O)C1O (some centres unmarked) [8-Chloroadenosine-5′-O-monophosphate] | 0.2 | – | 0.79 ΔF/F | 63.6 % of IMP | active | – | – | – | – | – | –
Nc1ncnc2c1ncn2C1OC(COP(=O)(O)O)C(OP(=O)(O)O)C1O (centres unmarked) [Adenosine 3′,5′-diphosphate sodium salt, adenosine 3′, 5′ diphosphate sodium salt] | 0.00025 | active | 0.9578 ΔF/F | 98.9 % of IMP | – | 1 | – | – | – | – | –
Nc1ncnc2c1ncn2[C@@H]1O[C@H](COP(=O)(O)O)[C@@H](O)[C@H]1O [Adenosine 5′-monophosphate disodium salt, reference compound] | 0.003 | active | 1.5470 ΔF/F | 159.8 % of IMP | – | – | – | – | – | – | –
Nc1ncnc2c1ncn2C1OC(COP(=O)(O)OS(=O)(=O)O)C(O)C1O (centres unmarked) [Adenosine 5′-phosphosulfate sodium salt, Adenosine 5′-phosphosulfate] | 0.008 | – | 0.8658 ΔF/F | 89.4 % of IMP | – | – | – | – | – | – | –
Nc1ncnc2c1ncn2[C@@H]1O[C@H](COP(O)(O)=S)[C@@H](O)[C@H]1O [Adenosine-5′-O-monophosphorothioate] | 0.003 | – | 1.2435 ΔF/F | 128.4 % of IMP | – | 11 | – | – | – | – | –
Nc1nc2c(ncn2[C@@H]2O[C@H](COP(=O)(O)O)[C@@H](O)[C@H]2O)c(=O)[nH]1 [GMP, guanosine monophosphate, reference compound] | 0.008 | – | – | – | – | – | – | – | – | – | –
Nc1nc2c(ncn2[C@@H]2O[C@H](COP(=O)(O)OP(=O)(O)O)[C@@H](O)[C@H]2O)c(=O)[nH]1 [Guanosine 5′-diphosphate sodium salt, Guanosine 5′-diphosphate] | 0.050 | active | 1.7550 ΔF/F | 141.2 % of IMP | – | 200 | – | – | – | – | –
Nc1nc2c(ncn2[C@@H]2O[C@H](COP(=O)(O)OP(=O)(O)OP(=O)(O)O)[C@@H](O)[C@H]2O)c(=O)[nH]1 [Guanosine 5′-triphosphate] | 0.175 | active | 1.8075 ΔF/F | 145.5 % of IMP | – | – | 700 | – | – | – | –
Nc1nc2c(ncn2[C@@H]2O[C@H](COP(O)(O)=S)C(O)C2O)c(=O)[nH]1 (some centres unmarked) [Guanosine-5′-monophosphorothioate] | 0.0025 | active | 1.29 ΔF/F | 103.8 % of IMP | – | – | 10 | – | – | – | –
O=c1[nH]cnc2c1ncn2[C@@H]1O[C@H](COP(=O)(O)OP(=O)(O)O)[C@@H](O)[C@H]1O [Inosine 5′-diphosphate (IDP) sodium salt, inosine 5′-diphosphate (IDP) sodium salt] | – | – | – | – | active | 650 | – | 0.3 ΔF/F | 33.3 % of IMP | 0.1625 | –
CNc1ncnc2c1ncn2[C@H]1C[C@H](OP(=O)(O)O)[C@@H](COP(=O)(O)O)O1 [MRS 2179 ammonium salt hydrate, 2′-Deoxy-N^6-methyl adenosine 3′,5′-diphosphate diammonium salt] | 0.013 | active | 1.8150 ΔF/F | 146.1 % of IMP | – | – | – | – | – | – | –
O=P(O)(O)OC[C@H]1O[C@@H](n2cnc3c(NC4CCCC4)ncnc32)[C@H](O)[C@@H]1O [N6-Cyclopentyladenosine-5′-O-monophosphate] | 0.013 | active | 1.2317 ΔF/F | 127.2 % of IMP | – | – | – | – | – | – | 50
CNc1ncnc2c1ncn2[C@@H]1O[C@H](COP(=O)(O)O)[C@@H](O)[C@H]1O [N6-Methyladenosine 5′-monophosphate] | 0.020 | – | 0.9907 ΔF/F | 102.3 % of IMP | active | – | – | – | – | – | 80
CC(=O)Nc1nc2c(ncn2[C@@H]2O[C@H](COP(=O)(O)O)[C@@H](O)[C@H]2O)c(=O)[nH]1 [N-Acetyl-5′-GMP] | 0.025 | active | 1.3351 ΔF/F | 137.9 % of IMP | – | – | – | – | – | – | 100
O=P(O)(O)OC[C@H]1O[C@@H](n2cnc3cncnc32)[C@H](O)[C@@H]1O [Purine riboside-5′-O-monophosphate, reference compound] | – | active | 2.0266 ΔF/F | 209.3 % of IMP | – | – | – | – | – | 0.005 | 20
NC(=O)c1ncn(C2OC(COP(=O)(O)O)C(O)C2O)n1 (centres unmarked) [Ribavirin 5′-Monophosphate] | 0.175 | active | 1.5294 ΔF/F | 158.0 % of IMP | – | – | – | – | – | – | 700
O=c1[nH]c(=O)c2ncn([C@@H]3O[C@H](COP(=O)(O)O)[C@@H](O)[C@H]3O)c2[nH]1 [Xanthosine 5′-Monophosphate Disodium Salt] | 0.025 | active | 1.6223 ΔF/F | 167.6 % of IMP | – | 100 | – | – | – | – | –
O=P(O)(O)OP(=O)(O)OP(=O)(O)OC[C@H]1O[C@@H](n2cnc3c(O)ncnc32)[C@H](O)[C@@H]1O [inosine triphosphate (ITP), inosine triphosphate, reference compound] | – | – | – | – | – | 80 | – | – | – | – | –
Guanosine 5′-monophosphomorpholidate 4-morpholine-N,N′-dicyclohexylcarboxamidine salt | – | – | – | – | active | – | – | 0.5121 ΔF/F | 52.9 % of IMP | 0.325 | 1300
